Measurements from paper PMC4253628, “Antiviral effects against EV71 of pimprinine and its derivatives isolated from Streptomyces sp” (Virology Journal, 2014).

Legend:
EV71 [1] = assay: microbe, parasite or virus in culture; conditions: Enterovirus A, EV71, RD, 48 h, read-out: EC50, compound concentration required to achieve 50% protection from virus-induced cytopathogenicity
Experimental: (§3) Cell viability was assessed by an MTT assay, which functions based on the reduction of a MTT into formazan dye by active mitochondria. The cells were treated with 100 μL of MTT (1 mg/mL, Sigma) and incubated at 37°C for 4 h. The reaction was blocked by DMSO and measured in a microplate reader (Bio-Tek Instruments) at 492 nm. The untreated control was arbitrarily set as 100%.
(§4) Confluent cell monolayers in 96-well dishes were infected with 100 TCID50 of corresponding virus dilution mixed with serial dilutions of tested compounds for 1 h at 37°C. Inocula were aspirated and the cells were then incubated with various concentrations of DMEM/tested compounds at 37°C, 5% CO2 for 48 h. CPE were observed microscopically and the viability of the cells was determined using MTT assays. […] The concentrations required for the tested compounds to achieve 50% protection of cells from virus-induced CPE were determined.

CVB3 [2] = assay: Inhibition of CVB3-induced CPE in Hep-2 cells; conditions: for EC50: Enterovirus B, CVB3, HEp-2, 48 h, read-out: EC50 CVB3; for SI CVB3, ratio CC50/EC50: Hep-2 cells
Experimental: as §3, §4

H1N1 [3] = assay: Virus yield reduction assay, H1N1; assay type: cell-based, influenza virus A/human/Hubei/86/2009 (H1N1); conditions: MDCK cells; — = less than 90% inhibition
Experimental: Virus yield reduction assays were also carried out to evaluate further the protective effects of the tested compounds.
The virus suspension, serially diluted 10-fold with DMEM containing 2% FBS, was inoculated to cells in a 96-well plate. After 1 h incubation at 37°C in 5% CO2, unbinding virus was washed out and DMEM maintenance medium supplemented with 2% FBS was added to the cells. After 2 days, the infected cells were monitored for cytopathic effects (CPEs). The virus titer was calculated by the Reed–Muench method.

HSV-1 [4] = assay: Plaque reduction assay, HSV-1 in Hep-2 cells; conditions: for EC50: Human alphaherpesvirus 1, HEp-2, read-out: EC50 HSV-1
Experimental: Confluent monolayers of Hep-2 cells, seeded in a 24-well plate, were infected with HSV-1 at a density of 60–80 plaque-forming units (PFU) per well and treated with media (pre-warmed DMEM containing 2% FBS, 0.8% low-melting agarose) mixed with or without the serially diluted tested compounds for the periods indicated following different procedures. The cells were incubated at 37°C until plaques appeared, followed by fixing with 10% formaldehyde and staining with 0.5% crystal violet. The plaques were counted by visual examination. The ratio of the number of plaques in the treated group to that in the untreated control was calculated.
A plaque reduction assay was performed to measure the inhibitory effects of the test compounds against HSV-1 infection.

CVB3 [5] = assay: Virus yield reduction assay, CVB3; assay type: cell-based, Coxsackievirus B3; conditions: Hep-2 cells, — = less than 90% inhibition
[6] = Cytotoxicity, ATPLite luminescence-based assay, HeLa cells; assay type: cell-based; conditions: human
From the text: (§1) The ATPLite assay may be more sensitive to cytotoxicity than the MTT method. For RD and Hep-2 cells, similar results were obtained, and for HeLa and MDCK cells, the values of CC50 from the ATPLite assay were smaller than those from MTT assays (Tables 1, 2 and 3).

[7] = Cytotoxicity, MTT method, MDCK cells; assay type: cell-based, canine; conditions: dog, uninfected MDCK cells, host cells of H1N1: MDCK
Experimental: (§2) The 50% cell cytotoxic concentrations (CC50s) of compounds were calculated using SPSS software. SI were calculated from the ratio of CC50: EC50.

EV71 [8] = assay: Progeny virus yield reduction, EV71 in RD cells; assay type: cell-based, Enterovirus 71; conditions: for reduction in progeny virus titers relative to virus control: 80 μM, 100 TCID50 EV71, RD cells, 10 h; for EC90: Enterovirus A, EV71, RD cells, progeny viral yield, read-out: EC90, compound concentration required to achieve 90% virus yield reduction
[9] = Cytotoxicity, ATPLite luminescence-based assay, MDCK cells; assay type: cell-based, canine; conditions: dog
From the text: as §1

EV71 [10] = conditions: EV71, RD cells
Experimental: as §3, §4

[11] = parameters: method as in PMID 11377760; conditions: in vivo, 80 mg/kg; cited from earlier work
HSV-1 [12] = assay: Virus yield reduction assay, HSV-1; assay type: cell-based, herpes simplex virus 1; conditions: Hep-2 cells; — = less than 90% inhibition
ADV-7 [13] = assay: Inhibition of ADV-7-induced CPE in HeLa cells; conditions: for SI ADV-7, ratio CC50/EC50: HeLa cells; for EC50: Human mastadenovirus B, HeLa, 48 h, read-out: EC50 ADV-7
Experimental: as §3, §4

ADV-7 [14] = assay: Virus yield reduction assay, ADV-7; assay type: cell-based, adenovirus 7; conditions: Human mastadenovirus B; HeLa cells; read-out: EC90 ADV-7, concentration required to inhibit 90% virus yield
[15] = Cytotoxicity, ATPLite luminescence-based assay, Hep-2 cells; assay type: cell-based; conditions: human
From the text: as §1

[16] = Cytotoxicity, MTT method, Hep-2 cells; assay type: cell-based; conditions: human, uninfected Hep-2 cells; host cells of CVB3: Hep-2, MTT, 48 h; read-out: CC50 (CVB3)
Experimental: as §2

[17] = Cytotoxicity, MTT method, uninfected RD cells; assay type: cell-based; conditions: human; RD cells, MTT, 48 h; mean ± SD of three experiments; read-out: CC50, compound concentration required to reduce cell viability by 50%
Experimental: as §2

[18] = Cytotoxicity, MTT method, HeLa cells; assay type: cell-based; conditions: human, uninfected HeLa cells; host cells of ADV-7: HeLa, MTT, 48 h; read-out: CC50 (ADV-7)
Experimental: as §2

[19] = Cytotoxicity, ATPLite luminescence-based assay, RD cells; assay type: cell-based; conditions: human
From the text: as §1

H1N1 [20] = assay: Inhibition of H1N1-induced CPE in MDCK cells; assay type: cell-based, influenza virus A/human/Hubei/86/2009 (H1N1)
EV71 [21] = assay: Dependence of anti-EV71 activity on virus inoculum (cell viability, MTT) in RD cells; assay type: cell-based, Enterovirus 71; conditions: for anti-EV71 inhibition at excessive virus inoculum: virus concentration above 10^4 TCID50
EV71 [22] = assay: Release analysis, EV71 from RD cells; assay type: cell-based, Enterovirus 71; conditions: 80 μM pimprinethine, 40 μM WS-30581 A or B; 12 h p.i.
EV71 [23] = assay: Adsorption analysis, EV71 on RD cells; assay type: cell-based, Enterovirus 71; conditions: 160 μM pimprinethine, 80 μM WS-30581 A, 80 μM WS-30581 B; EV71 10^4 TCID50; 2 h adsorption
EV71 [24] = assay: Virucidal activity against EV71; assay type: cell-based, Enterovirus 71; conditions: 80 μM pimprinethine, 40 μM WS-30581 A or 40 μM WS-30581 B; 24 h at 4°C; 10^3 TCID50
EV71 [25] = assay: Effective stage analysis, EV71 in RD cells; assay type: cell-based, Enterovirus 71; conditions: 48 h
[26] = parameters: method as in PMID 6501088; conditions: ddY mice, intraperitoneal injection; cited from earlier work

SMILES | EC50 (EV71 [1]) [µM] | EC50 (CVB3 [2]) [µM] | SI CVB3, ratio CC50/EC50 (CVB3 [2]) | EC90 H1N1, concentration required to inhibit 90% virus yield (H1N1 [3]) | SI HSV-1, ratio CC50/EC50 (HSV-1 [4]; Hep-2 cells) | EC50 (HSV-1 [4]) [µM] | CC50 at 48 h [7] [µM] | reduction in progeny virus titers relative to virus control (EV71 [8]) | EC90 (EV71 [8]) [µM] | SI (selectivity index), ratio CC50/EC50 (EV71 [10]) | EC90 HSV-1, concentration required to inhibit 90% virus yield (HSV-1 [12]) | SI ADV-7, ratio CC50/EC50 (ADV-7 [13]) | EC50 (ADV-7 [13]) [µM] | EC90 (ADV-7 [14]) [µM] | CC50 at 48 h [16] [µM] | CC50 at 48 h [17] [µM] | CC50 at 48 h [18] [µM] | CC50 [19] [µM] | inhibition of H1N1 infection (H1N1 [20]; MDCK cells) | anti-EV71 inhibition at excessive virus inoculum (EV71 [21]) | also measured
Cc1ncc(-c2c[nH]c3ccccc23)o1 [Pimprinine, 5, 30-indolyl-2-methyloxazole] | 89 ± 18 | 95 ± 16 | 5 | — (—, less than 50% or 90% inhibition) | 3 | 160 ± 18 | 899 ± 56 | approximately 0.5 log | 149 ± 12 | 16 | — (—, less than 50% or 90% inhibition) | 8 | 150 ± 10 | 266 ± 14 | 443 ± 35 | 1460 ± 27 | 1140 ± 181 | 1260 ± 247 | negligible measurable inhibition | no inhibition observed | EC90 CVB3, concentration required to inhibit 90% virus yield (CVB3 [5]): —^f (—, less than 50% or 90% inhibition); CC50 [6]: 940 ± 219 µM; CC50 [9]: 649 ± 77 µM; protection against electrically induced convulsions [11]: significant protection; CC50 [15]: 403 ± 53 µM; EC50 H1N1 (H1N1 [20]; MDCK cells, 100 TCID50, 48 h, CPE, — = less than 50% inhibition): — (—, less than 50% or 90% inhibition); viability at 10 µM (EV71 [21]; Enterovirus A, 10 μM, 10^4 TCID50 EV71, 48 h pi): 7%; viability at 20 µM (EV71 [21]; Enterovirus A, 20 μM, 10^4 TCID50 EV71, 48 h pi): 19%; viability at 40 µM (EV71 [21]; Enterovirus A, 40 μM, 10^4 TCID50 EV71, 48 h pi): 16%; viability at 80 µM (EV71 [21]; Enterovirus A, 80 μM, 10^4 TCID50 EV71, 48 h pi): 22%; viability at 160 µM (EV71 [21]; Enterovirus A, 160 μM, 10^4 TCID50 EV71, 48 h pi): 28%
CCCc1ncc(-c2c[nH]c3ccccc23)o1 [WS-30581 A] | 16 ± 1 | 14 ± 4 | 5 | — (—, less than 50% or 90% inhibition) | 4 | 18 ± 2 | 212 ± 18 | 3.0 log | 26 ± 6 | 23 | — (—, less than 50% or 90% inhibition) | 13 | 17 ± 18 | 43 ± 3 | 72 ± 8 | 363 ± 13 | 217 ± 4 | 313 ± 49 | less than 70% | Inhibition was eliminated | inhibition of HSV-1-induced plaque formation (HSV-1 [4]; inhibition achievable, Hep-2 cells): approximately 80%; EC90 (CVB3 [5]; Enterovirus B, CVB3, read-out: EC90 CVB3, concentration required to inhibit 90% virus yield): 39 ± 4 µM; release of EV71 from RD cells (EV71 [22]): unaffected; virus titer during virus attachment (adsorption) (EV71 [23]): no significant decrease; virus titers of EV71 mixture with vs without compound (virucidal activity) (EV71 [24]): No significant difference; virus titer reduction vs untreated cells (EV71 [25]; 80 μM, added post infection, EV71 100 TCID50): approximately 5.0 log; viability at 80 µM (EV71 [25]; Enterovirus A, RD, added post infection (therapeutic), EV71 100 TCID50, read-out: viability rates of the infected cells): ~100%; acute toxicity [26]: above 250 mg/kg; EC50 (H1N1 [20]; Influenza A virus, H1N1, MDCK, 48 h, read-out: EC50 H1N1): 38 ± 7 µM; SI H1N1, ratio CC50/EC50 (H1N1 [20]; MDCK cells): 6
